US5767085A, “Compounds with growth hormone releasing properties” (Novo Nordisk A/S, priority 1993, dated 1998)
Where a SMILES comes first, the peptide text is derived from it. [ ]: non-standard residue; d: D form. d1Nal = N[C@H](Cc1cccc2ccccc12)C(=O)O; d2Nal = N[C@H](Cc1ccc2ccccc2c1)C(=O)O; Aib = CC(C)(N)C(=O)O

System: rat pituitary cells
Test: In-vitro GH release assay using rat pituitary cells (rGH measured by SPA)
Format: cell-based
Conditions: GH secretion from cultured male rat anterior pituitary cells, 15 min stimulation
Method: An in-vitro assay using rat pituitary cells was established to study the effect of different GH secretagogues. The mixed pituitary cell culture was isolated from the anterior pituitary of male rats and cultured for 3 days. After washing the cells were stimulated for 15 min and the amount of GH secreted measured in the culture supernatant. The isolation of rat pituitary cells was a modification of 0. Sartor et al., Endocrinolog 116, 1985, pp. 952-957. Pituitaries were discharged from 250 g male Sprague-Dawley rats after decapitation. The neurointermediate lobes were removed and the remainder was placed in Grey's medium supplemented with 0.25% glucose, 2× non essential amino acid and 1% BSA (isolation buffer). The glands were cut into small pieces and transferred to a flask containing 3 ml isolation buffer+11.5 mg trypsin and 1000 μg DNase and incubated for 35 min at 37° C., 95% ° 2 and 70 rotations per min. The fragments were washed 3 times by sedimentation in isolation buffer and aspirated into single cells by using a pasteur pipet. After dispersion the cells were filtered though a nylon filter (160 jum) to remove undigested tissue. The cells were washed 3 times with isolation buffer supplemented with trypsin inhibitor (0.75 mg/ml) and resuspended in culture medium (DMEM supplemented with 25 mM HEPES, 4mM Glutamine, 0.75% sodium bicarbonate, 2.5% FCS, 3% horse serum, 10% rat serum, 1 nM T3 and 40 gg/L dexamethasone) to a density of 2×10^5 cells/ml. The cells were seeded into microtiter plates, 200 μl/well and cultured for 3 days at 37° C.and 8% CO2. Following the culture period the cells were washed twice with stimulation buffer (HBSS supplemented with 1% BSA, 0.25% D-glucose and 25 mM HEPES) and preincubated for 1 hour. The buffer was then removed and new stimulation buffer containing the peptide was added and the plates were incubated for 15 min at 37° C.and 5% CO2. The medium was collected and analyzed for rat growth hormone (rGH) content in a scintillation proximity assay (SPA) as follows (SPA, essentially as described in U.S. Pat. No. 4,568,649, Hart and […], Mol.Immunol. 16, 1979, pp. 265-269, or Udenfriend et al., Proc.Natl.Acad.Sci. USA 82, 1985, pp. 8672-8676). The rGH assay was performed in OptiPlates (96-well plates) suitable for direct counting in a […] TopCount (β-scintillation counter). Assay Protocol: 40 μl buffer 10 μl sample (incubated stimulation buffer) […] 50 μl rabbit anti-rGH 50 μl SPA reagent (anti-rabbit antibody) The plates are sealed and placed on a plate shaker for 30 minutes followed by 10 hours of incubation and settling at 10-15° C.and counting. In the SPA, rGH bound to an anti-GH rabbit antibody (primary antibody) is reacted with a second antibody bound to fluomicrospheres (SPA Type II RIA available from Amersham). Any radiolabelled rGH which is bound to the primary antibody will be immobilized on the fluomicrospheres which will then produce light. Measurement in a β-scintillation counter makes it possible to calculate the amount of radiolabelled rGH. The amount of radiolabelled rGH bound to the fluomicrospheres decreases with an increasing content of rGH in the sample.

Row | EC50 | SMILES | Emax (% of GHRP-6)
1 | 10 nM | C[C@H](N)C(=O)N[C@@H](Cc1c[nH]cn1)C(=O)N[C@H](Cc1cccc2ccccc12)C(=O)N[C@H](Cc1ccccc1)C(=O)N[C@@H](CCCCN)C(N)=O [Example 51, H--Ala--His--D-1Nal-D--Phe--Lys--NH2] (H-AH[d1Nal][dF]K-NH2) | 85 % of GHRP-6
2 | 11 nM | C[C@H](NC(=O)[C@@H](Cc1ccccc1)NC(=O)[C@@H](Cc1ccc2ccccc2c1)NC(=O)[C@H](Cc1c[nH]cn1)NC(=O)C(C)(C)N)C(N)=O [Example 88, H--Aib--His--D-2Nal-D--Phe--Ala--NH2] (H-[Aib]H[d2Nal][dF]A-NH2) | 80 % of GHRP-6
3 | 2 nM | C[C@H](N)C(=O)N[C@@H](Cc1ccccc1)C(=O)N[C@H](Cc1ccc2ccccc2c1)C(=O)N[C@H](Cc1ccccc1)C(=O)N[C@@H](CCCCN)C(N)=O [Example 10, H--Ala--Phe--D-2Nal-D--Phe--Lys--NH2] (H-AF[d2Nal][dF]K-NH2) | 90 % of GHRP-6
4 | 8 nM | CC(C)(N)C(=O)N[C@@H](Cc1ccccc1)C(=O)N[C@H](Cc1ccc2ccccc2c1)C(=O)N[C@H](Cc1ccccc1)C(=O)N[C@@H](CCCCN)C(N)=O [Example 83, H--Aib--Phe--D-2Nal-D--Phe--Lys--NH2] (H-[Aib]F[d2Nal][dF]K-NH2) | 75 % of GHRP-6
